{"source": "paper PMC11968843", "about": "“Sulphostin-inspired N-phosphonopiperidones as selective covalent DPP8 and DPP9 inhibitors” (Nature Communications, 2025)", "key": {"[1]": {"biological_target": "T1, HEK293 cell lysates (proteome-wide targets of probe 9) (Homo sapiens, UniProt O60506)", "T1 construct": "endogenous in cells; host or cells: HEK293 cell lysate", "assay": "Competitive ABPP / direct target identification with alkyne probe 9 in HEK293 cell lysates", "format": "binding, H. sapiens", "conditions": "protein SYNCRIP"}, "[2]": {"biological_target": "T2, HEK293 cell lysates (proteome-wide targets of probe 9) (Homo sapiens, UniProt P11142)", "T2 construct": "endogenous in cells; host or cells: HEK293 cell lysate", "T2 sequence (P11142 whole entry)": "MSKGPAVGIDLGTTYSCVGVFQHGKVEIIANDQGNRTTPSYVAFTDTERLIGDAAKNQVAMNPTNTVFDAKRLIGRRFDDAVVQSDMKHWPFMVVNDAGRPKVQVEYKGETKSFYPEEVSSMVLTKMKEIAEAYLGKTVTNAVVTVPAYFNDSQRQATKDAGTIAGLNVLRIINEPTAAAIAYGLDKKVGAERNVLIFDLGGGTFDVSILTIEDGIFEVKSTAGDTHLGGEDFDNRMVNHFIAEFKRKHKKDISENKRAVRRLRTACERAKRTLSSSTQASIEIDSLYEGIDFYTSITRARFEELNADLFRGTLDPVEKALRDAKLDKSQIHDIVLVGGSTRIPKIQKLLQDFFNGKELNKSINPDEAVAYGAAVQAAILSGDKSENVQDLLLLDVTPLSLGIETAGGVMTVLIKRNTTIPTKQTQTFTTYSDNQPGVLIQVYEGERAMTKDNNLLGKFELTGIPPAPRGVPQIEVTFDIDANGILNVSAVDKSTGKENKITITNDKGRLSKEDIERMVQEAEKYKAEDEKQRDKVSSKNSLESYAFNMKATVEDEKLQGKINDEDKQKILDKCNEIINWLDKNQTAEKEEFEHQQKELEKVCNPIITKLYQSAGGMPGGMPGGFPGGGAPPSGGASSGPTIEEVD", "assay": "Competitive ABPP / direct target identification with alkyne probe 9 in HEK293 cell lysates", "format": "binding, H. sapiens", "conditions": "protein HSPA8"}, "[3]": {"biological_target": "T3, HEK293 cell lysates (proteome-wide targets of probe 9) (Homo sapiens, UniProt P08758)", "T3 construct": "endogenous in cells; host or cells: HEK293 cell lysate", "assay": "Competitive ABPP / direct target identification with alkyne probe 9 in HEK293 cell lysates", "format": "binding, H. sapiens", "conditions": "protein ANXA5"}, "[4]": {"biological_target": "T4, HEK293 cell lysates (proteome-wide targets of probe 9) (Homo sapiens, UniProt Q7Z5P9)", "T4 construct": "endogenous in cells; host or cells: HEK293 cell lysate", "assay": "Competitive ABPP / direct target identification with alkyne probe 9 in HEK293 cell lysates", "format": "binding, H. sapiens", "conditions": "protein MUC19"}, "[5]": {"biological_target": "T5, HEK293 cell lysates (proteome-wide targets of probe 9) (Homo sapiens, UniProt P50990)", "T5 construct": "endogenous in cells; host or cells: HEK293 cell lysate", "T5 sequence (P50990 whole entry)": "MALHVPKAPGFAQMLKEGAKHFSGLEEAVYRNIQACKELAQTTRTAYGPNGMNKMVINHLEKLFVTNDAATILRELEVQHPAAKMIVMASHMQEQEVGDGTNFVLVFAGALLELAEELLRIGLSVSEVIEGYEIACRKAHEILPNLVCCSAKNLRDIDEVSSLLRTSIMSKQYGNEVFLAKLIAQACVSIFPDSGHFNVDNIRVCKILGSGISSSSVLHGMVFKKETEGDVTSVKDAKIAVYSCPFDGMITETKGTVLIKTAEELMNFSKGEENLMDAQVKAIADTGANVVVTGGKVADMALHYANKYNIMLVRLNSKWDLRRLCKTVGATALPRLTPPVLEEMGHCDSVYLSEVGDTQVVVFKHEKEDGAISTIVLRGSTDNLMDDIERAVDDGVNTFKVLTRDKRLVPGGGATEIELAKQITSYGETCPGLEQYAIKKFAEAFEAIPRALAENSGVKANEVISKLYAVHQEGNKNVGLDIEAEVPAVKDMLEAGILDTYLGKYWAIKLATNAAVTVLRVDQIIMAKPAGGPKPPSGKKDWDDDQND", "assay": "Competitive ABPP / direct target identification with alkyne probe 9 in HEK293 cell lysates", "format": "binding, H. sapiens", "conditions": "protein CCT8"}, "[6]": {"biological_target": "T6, HEK293 cell lysates (proteome-wide targets of probe 9) (Homo sapiens, UniProt P07737)", "T6 construct": "endogenous in cells; host or cells: HEK293 cell lysate", "T6 sequence (P07737 whole entry)": "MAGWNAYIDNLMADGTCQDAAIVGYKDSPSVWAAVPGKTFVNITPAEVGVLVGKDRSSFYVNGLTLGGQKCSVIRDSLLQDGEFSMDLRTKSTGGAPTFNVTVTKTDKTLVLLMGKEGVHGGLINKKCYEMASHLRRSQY", "assay": "Competitive ABPP / direct target identification with alkyne probe 9 in HEK293 cell lysates", "format": "binding, H. sapiens", "conditions": "protein PFN1"}, "[7]": {"biological_target": "T7, HEK293 cell lysates (proteome-wide targets of probe 9) (Homo sapiens, UniProt Q9NR30)", "T7 construct": "endogenous in cells; host or cells: HEK293 cell lysate", "assay": "Competitive ABPP / direct target identification with alkyne probe 9 in HEK293 cell lysates", "format": "binding, H. sapiens", "conditions": "protein DDX21"}, "[8]": {"biological_target": "T8, HEK293 cell lysates (proteome-wide targets of probe 9) (Homo sapiens, UniProt P46782)", "T8 construct": "endogenous in cells; host or cells: HEK293 cell lysate", "assay": "Competitive ABPP / direct target identification with alkyne probe 9 in HEK293 cell lysates", "format": "binding, H. sapiens", "conditions": "protein RPS5"}, "[9]": {"biological_target": "T9, HEK293 cell lysates (proteome-wide targets of probe 9) (Homo sapiens, UniProt P32119)", "T9 construct": "endogenous in cells; host or cells: HEK293 cell lysate", "T9 sequence (P32119 whole entry)": "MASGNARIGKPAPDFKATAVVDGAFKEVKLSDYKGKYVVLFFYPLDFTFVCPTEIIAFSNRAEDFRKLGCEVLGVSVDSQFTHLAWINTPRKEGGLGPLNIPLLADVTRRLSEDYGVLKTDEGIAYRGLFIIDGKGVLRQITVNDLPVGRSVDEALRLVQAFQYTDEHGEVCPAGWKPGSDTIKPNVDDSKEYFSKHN", "assay": "Competitive ABPP / direct target identification with alkyne probe 9 in HEK293 cell lysates", "format": "binding, H. sapiens", "conditions": "protein PRDX2"}, "[10]": {"biological_target": "T10, HEK293 cell lysates (proteome-wide targets of probe 9) (Homo sapiens, UniProt P49327)", "T10 construct": "endogenous in cells; host or cells: HEK293 cell lysate", "T10 sequence (P49327 whole entry)": "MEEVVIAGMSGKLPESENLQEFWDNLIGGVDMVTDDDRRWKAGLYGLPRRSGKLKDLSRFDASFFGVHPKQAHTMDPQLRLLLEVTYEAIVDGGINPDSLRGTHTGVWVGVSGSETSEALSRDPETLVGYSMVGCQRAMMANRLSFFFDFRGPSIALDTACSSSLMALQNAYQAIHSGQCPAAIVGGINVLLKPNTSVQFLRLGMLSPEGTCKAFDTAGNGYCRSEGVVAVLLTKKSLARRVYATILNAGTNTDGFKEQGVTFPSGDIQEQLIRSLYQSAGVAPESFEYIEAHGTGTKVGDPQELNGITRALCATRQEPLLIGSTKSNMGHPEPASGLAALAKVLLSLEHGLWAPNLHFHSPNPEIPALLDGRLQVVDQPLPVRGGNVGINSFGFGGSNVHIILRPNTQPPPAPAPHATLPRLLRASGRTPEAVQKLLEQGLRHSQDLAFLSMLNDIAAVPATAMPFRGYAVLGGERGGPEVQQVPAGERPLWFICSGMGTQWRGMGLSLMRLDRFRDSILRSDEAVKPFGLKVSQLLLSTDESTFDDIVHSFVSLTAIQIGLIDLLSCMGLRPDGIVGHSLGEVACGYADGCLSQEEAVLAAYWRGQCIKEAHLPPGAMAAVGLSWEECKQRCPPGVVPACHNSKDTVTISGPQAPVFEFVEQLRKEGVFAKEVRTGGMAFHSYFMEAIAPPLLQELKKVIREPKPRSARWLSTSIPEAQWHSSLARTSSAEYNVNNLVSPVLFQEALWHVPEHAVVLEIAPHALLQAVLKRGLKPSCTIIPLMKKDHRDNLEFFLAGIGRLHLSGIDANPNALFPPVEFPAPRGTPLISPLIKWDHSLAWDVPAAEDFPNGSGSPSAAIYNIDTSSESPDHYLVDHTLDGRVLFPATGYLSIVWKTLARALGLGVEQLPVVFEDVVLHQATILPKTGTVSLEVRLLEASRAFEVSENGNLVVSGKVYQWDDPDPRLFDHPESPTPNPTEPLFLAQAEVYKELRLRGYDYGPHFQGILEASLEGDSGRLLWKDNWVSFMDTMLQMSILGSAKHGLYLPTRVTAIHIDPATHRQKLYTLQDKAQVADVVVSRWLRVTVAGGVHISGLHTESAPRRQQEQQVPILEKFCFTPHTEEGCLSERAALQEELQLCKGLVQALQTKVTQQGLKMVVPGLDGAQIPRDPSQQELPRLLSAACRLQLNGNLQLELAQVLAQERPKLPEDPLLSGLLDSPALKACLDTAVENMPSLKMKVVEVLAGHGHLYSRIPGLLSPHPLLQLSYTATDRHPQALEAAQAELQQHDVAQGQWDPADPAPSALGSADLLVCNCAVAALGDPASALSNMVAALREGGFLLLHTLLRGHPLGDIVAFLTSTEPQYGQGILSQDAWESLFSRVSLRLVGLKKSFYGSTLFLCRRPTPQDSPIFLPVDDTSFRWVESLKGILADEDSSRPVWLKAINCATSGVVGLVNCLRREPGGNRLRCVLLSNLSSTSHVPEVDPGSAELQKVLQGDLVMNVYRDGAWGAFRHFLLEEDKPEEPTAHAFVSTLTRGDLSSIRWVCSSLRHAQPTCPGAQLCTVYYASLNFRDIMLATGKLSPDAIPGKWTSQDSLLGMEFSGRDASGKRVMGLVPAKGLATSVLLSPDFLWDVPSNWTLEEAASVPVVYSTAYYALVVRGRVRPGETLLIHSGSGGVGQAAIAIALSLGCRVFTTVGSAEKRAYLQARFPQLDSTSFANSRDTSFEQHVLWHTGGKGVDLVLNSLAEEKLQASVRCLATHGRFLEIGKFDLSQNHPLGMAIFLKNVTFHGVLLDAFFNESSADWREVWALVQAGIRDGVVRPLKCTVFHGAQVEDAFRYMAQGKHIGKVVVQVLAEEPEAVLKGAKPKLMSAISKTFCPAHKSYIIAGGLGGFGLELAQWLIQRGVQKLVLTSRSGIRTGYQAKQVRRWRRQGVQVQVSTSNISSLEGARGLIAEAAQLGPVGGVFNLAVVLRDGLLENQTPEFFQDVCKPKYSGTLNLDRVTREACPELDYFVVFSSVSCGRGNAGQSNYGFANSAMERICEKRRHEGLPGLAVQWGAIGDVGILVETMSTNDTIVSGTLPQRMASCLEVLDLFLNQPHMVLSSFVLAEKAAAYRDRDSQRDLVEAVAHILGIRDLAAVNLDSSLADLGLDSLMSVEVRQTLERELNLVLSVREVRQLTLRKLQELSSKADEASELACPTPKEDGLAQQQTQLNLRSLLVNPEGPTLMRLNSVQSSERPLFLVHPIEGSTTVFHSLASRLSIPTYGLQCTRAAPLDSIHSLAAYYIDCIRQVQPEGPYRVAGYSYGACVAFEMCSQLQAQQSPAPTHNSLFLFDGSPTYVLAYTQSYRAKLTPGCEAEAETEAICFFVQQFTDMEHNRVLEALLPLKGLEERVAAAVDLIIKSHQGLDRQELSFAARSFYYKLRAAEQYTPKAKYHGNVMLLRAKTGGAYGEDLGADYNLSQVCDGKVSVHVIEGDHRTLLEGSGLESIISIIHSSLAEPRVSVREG", "assay": "Competitive ABPP / direct target identification with alkyne probe 9 in HEK293 cell lysates", "format": "binding, H. sapiens", "conditions": "protein FASN"}, "[11]": {"biological_target": "T11, HEK293 cell lysates (proteome-wide targets of probe 9) (Homo sapiens, UniProt P23396)", "T11 construct": "endogenous in cells; host or cells: HEK293 cell lysate", "assay": "Competitive ABPP / direct target identification with alkyne probe 9 in HEK293 cell lysates", "format": "binding, H. sapiens", "conditions": "protein RPS3"}, "[12]": {"biological_target": "T12, HEK293 cell lysates (proteome-wide targets of probe 9) (Homo sapiens, UniProt P62829)", "T12 construct": "endogenous in cells; host or cells: HEK293 cell lysate", "assay": "Competitive ABPP / direct target identification with alkyne probe 9 in HEK293 cell lysates", "format": "binding, H. sapiens", "conditions": "protein RPL23"}, "[13]": {"biological_target": "T13, HEK293 cell lysates (proteome-wide targets of probe 9) (Homo sapiens, UniProt P62280)", "T13 construct": "endogenous in cells; host or cells: HEK293 cell lysate", "assay": "Competitive ABPP / direct target identification with alkyne probe 9 in HEK293 cell lysates", "format": "binding, H. sapiens", "conditions": "protein RPS11"}, "[14]": {"biological_target": "T14, HEK293 cell lysates (proteome-wide targets of probe 9) (Homo sapiens, UniProt P08238)", "T14 construct": "endogenous in cells; host or cells: HEK293 cell lysate", "T14 sequence (P08238 whole entry)": "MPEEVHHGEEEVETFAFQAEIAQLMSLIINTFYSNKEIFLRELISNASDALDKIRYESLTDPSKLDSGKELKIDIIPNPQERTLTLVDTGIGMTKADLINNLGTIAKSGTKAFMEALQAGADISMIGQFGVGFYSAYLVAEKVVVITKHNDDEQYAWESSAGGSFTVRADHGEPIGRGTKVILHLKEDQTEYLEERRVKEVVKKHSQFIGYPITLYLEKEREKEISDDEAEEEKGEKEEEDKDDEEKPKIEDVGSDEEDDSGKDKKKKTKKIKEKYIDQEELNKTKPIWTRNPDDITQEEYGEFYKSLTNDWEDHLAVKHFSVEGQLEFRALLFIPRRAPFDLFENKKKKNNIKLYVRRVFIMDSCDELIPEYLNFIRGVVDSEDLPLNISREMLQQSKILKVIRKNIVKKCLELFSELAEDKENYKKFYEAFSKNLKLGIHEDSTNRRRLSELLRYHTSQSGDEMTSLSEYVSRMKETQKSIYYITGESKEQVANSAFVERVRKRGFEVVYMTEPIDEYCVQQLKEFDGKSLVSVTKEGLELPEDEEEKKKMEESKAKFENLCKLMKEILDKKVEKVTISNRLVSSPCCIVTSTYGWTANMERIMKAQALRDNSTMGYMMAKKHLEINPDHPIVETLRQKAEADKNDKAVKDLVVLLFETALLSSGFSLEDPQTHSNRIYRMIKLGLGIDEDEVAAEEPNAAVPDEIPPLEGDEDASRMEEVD", "assay": "Competitive ABPP / direct target identification with alkyne probe 9 in HEK293 cell lysates", "format": "binding, H. sapiens", "conditions": "protein HSP90AB1"}, "[15]": {"biological_target": "T15, HEK293 cell lysates (proteome-wide targets of probe 9) (Homo sapiens, UniProt P05455)", "T15 construct": "endogenous in cells; host or cells: HEK293 cell lysate", "assay": "Competitive ABPP / direct target identification with alkyne probe 9 in HEK293 cell lysates", "format": "binding, H. sapiens", "conditions": "protein SSB"}, "[16]": {"tested_on": "HeLa wild-type cells", "assay": "Cell viability assay (MTT), co-treatment with Mitomycin C", "format": "cell-based", "conditions": "for cell viability normalized for each condition seperately to corresponsing [-MMC +inhibitor] control: +MMC co-treatment, individual replicate values (Supplementary Figure 11b)", "procedure": "HeLa wild-type (HeLa Flp-In T-REx WT, kind gift from Prof. Matthias Hentze) and HeLa DPP9^KO cells (prepared in-house) were cultured in DMEM (ThermoFisher, USA) supplemented with 10% FBS (PAN Biotech, Germany), 2 mM L-Glutamin (ThermoFisher, USA) and 1% Penicillin/Streptomycin (100 U mL^−1 Penicillin and 100 µg mL^−1 Streptomycin, ThermoFisher, USA). Cells were seeded in 96-well flat-bottom cell culture plates (Greiner, Germany) at a concentration of 5 × 10^3 cells per well (37 °C and 5% CO2). The indicated concentration of Mitomycin C (MMC, Merck) was added to the cells 24 h after seeding, together with 10 µM of the indicated inhibitor. The inhibitors were refreshed every 24 h. Control cells were treated with DMSO.\nCell viability was measured 72 hours after the MMC treatment. For this, the medium was removed and replaced with phenol-red free DMEM (ThermoFisher, USA) containing 0.5 mg mL^−1 MTT (Sigma Aldrich, USA). Cells were incubated for 30 min at 37 °C, 5% CO2. Subsequently, the medium was removed and replaced by DMSO. The plates were shaken on an orbital shaker for 20 min before measuring the MTT signal on a CARIOstar Plus microplate reader (BMT labtech, Germany). Each experiment was performed three times, each in triplicates."}, "[17]": {"conditions": "Figure 5d S11a, + Ctrl. [+MMC] vs. compound [+MMC], Tukey's multiple comparisons test"}, "[18]": {"conditions": "Figure S11b, Ctrl. vs. compound, Uncorrected Fisher's LSD"}}, "note": "Several values for one entry are separate records, joined by “and”; a condition that tells them apart may be missing. Equal values may be shown once. Entries after “also recorded” stand apart in the source; their conditions may differ.", "data": [{"molecule": "C#CCCCP(=O)(OCC)N1CCCC(N)C1=O.O=C(O)C(F)(F)F", "note": "(mixture of isomers) [Compound 9]", "values": [{"measurement": "Log2-fold change (9/DMSO)", "setting": "[1]", "result": 0.3304}, {"measurement": "Log2-fold change (9/DMSO)", "setting": "[2]", "result": 0.1798}, {"measurement": "Log2-fold change (9/DMSO)", "setting": "[3]", "result": -0.9261}, {"measurement": "Log2-fold change (9/DMSO)", "setting": "[4]", "result": -1.528}, {"measurement": "Log2-fold change (9/DMSO)", "setting": "[5]", "result": 0.4828}, {"measurement": "Log2-fold change (9/DMSO)", "setting": "[6]", "result": 0.6639}, {"measurement": "Log2-fold change (9/DMSO)", "setting": "[7]", "result": 0.9591}, {"measurement": "Log2-fold change (9/DMSO)", "setting": "[8]", "result": 0.2495}, {"measurement": "Log2-fold change (9/DMSO)", "setting": "[9]", "result": 0.06438}, {"measurement": "Log2-fold change (9/DMSO)", "setting": "[10]", "result": 0.4818}, {"measurement": "Log2-fold change (9/DMSO)", "setting": "[11]", "result": 0.2732}, {"measurement": "Log2-fold change (9/DMSO)", "setting": "[12]", "result": 0.1532}, {"measurement": "Log2-fold change (9/DMSO)", "setting": "[13]", "result": -0.5072}, {"measurement": "Log2-fold change (9/DMSO)", "setting": "[14]", "result": 0.02806}, {"measurement": "Log2-fold change (9/DMSO)", "setting": "[15]", "result": 1.078}]}, {"molecule": "CCCCCCP(=O)(OCC)N1CCC[C@H](N)C1=O", "note": "(stereo partly shown) [Compound 5]", "values": [{"measurement": "cell viability normalized for each condition seperately to corresponsing [-MMC +inhibitor] control", "setting": "[16]", "result": "58.346% and 64.1242% and 71.7486% and 57.5023% and 82.3895% and 73.7368% and 74.46% and 78.7587% and 61.0935%"}, {"measurement": "95% confidence interval of difference", "setting": "[16]; [17]", "result": "-9,959 to 11,24"}, {"measurement": "95% confidence interval of difference", "setting": "[16]; [18]", "result": "-11,45 to 2,173"}]}, {"molecule": "CCCCCc1ccc(SCCP(=O)(OCC)N2CCC[C@H](N)C2=O)cc1.O=C(O)C(F)(F)F", "note": "(stereo partly shown) [Compound 16]", "values": [{"measurement": "cell viability normalized for each condition seperately to corresponsing [-MMC +inhibitor] control", "setting": "[16]", "result": "56.5022% and 55.2183% and 55.934% and 53.6658% and 54.9944% and 49.1952% and 50.7013% and 59.4169% and 66.1488%"}, {"measurement": "95% confidence interval of difference", "setting": "[16]; [17]", "result": "1,107 to 22,31"}, {"measurement": "95% confidence interval of difference", "setting": "[16]; [18]", "result": "1,930 to 15,55"}, {"measurement": "effect on cell viability / sensitivity to MMC", "setting": "[16]; HeLa wild-type, 1 µM MMC + 10 µM inhibitor, 72 h", "result": "increase in the sensitivity of cells to genotoxic stress; also recorded: clearly increased the sensitivity of cells to MMC"}, {"measurement": "Log2-fold change (16/9)", "setting": "[1]", "result": -1.04}, {"measurement": "Log2-fold change (16/9)", "setting": "[2]", "result": -0.08018}, {"measurement": "Log2-fold change (16/9)", "setting": "[3]", "result": 0.8558}, {"measurement": "Log2-fold change (16/9)", "setting": "[4]", "result": 0.8224}, {"measurement": "Log2-fold change (16/9)", "setting": "[5]", "result": -0.5032}, {"measurement": "Log2-fold change (16/9)", "setting": "[6]", "result": -2.001}, {"measurement": "Log2-fold change (16/9)", "setting": "[7]", "result": 0.06992}, {"measurement": "Log2-fold change (16/9)", "setting": "[8]", "result": 0.301}, {"measurement": "Log2-fold change (16/9)", "setting": "[9]", "result": 1.348}, {"measurement": "Log2-fold change (16/9)", "setting": "[10]", "result": -0.4881}, {"measurement": "Log2-fold change (16/9)", "setting": "[11]", "result": -0.6746}, {"measurement": "Log2-fold change (16/9)", "setting": "[12]", "result": -1.084}, {"measurement": "Log2-fold change (16/9)", "setting": "[13]", "result": 0.1367}, {"measurement": "Log2-fold change (16/9)", "setting": "[14]", "result": -0.3526}, {"measurement": "Log2-fold change (16/9)", "setting": "[15]", "result": -1.02}]}]}
